Measurements from patent EP4578856A1, “HETEROCYCLIC COMPOUND” (Ubience Inc., priority 2022, dated 2024).

Target: ROCK2 protein (Homo sapiens, UniProt O75116)
Assay: Degradation inducing activity of ROCK2 protein in HUVEC cells, Western blotting (Simple Western JESS)
Format: cell-based
Parameters: endogenous in cells; host or cells: HUVEC (ATCC CRL-1730)
Conditions: HUVEC, 24 h; for inhibition at 1 µM: degradation rate at 1 µM; for inhibition at 10 µM: degradation rate at 10 µM
Experimental: In vitro degradation inducing activity of ROCK2 protein of compounds of Examples was evaluated by Western Blotting (WB).
By a test compound, 10 mM DMSO solution was prepared, which was used as a 10 µM test compound solution. Further, the solution was diluted 10-fold with DMSO to prepare a 1 mM solution, which was used as a 1 µM test compound solution.
HUVEC cells (ATCC: CRL-1730, Lot: 70041472) were cultured in F-12K medium supplemented with 10% FBS, 0.1 mg/mL heparin, […] Endothelial Cell Growth Supplement (ECGS, Corning), and 1% Penicillin/Streptomycin. The HUVEC cells seeded in a 24 well plate at 50,000 cells/well/1 mL were cultured for 24 hours, and then 1 µL of DMSO or a test compound solution was added thereto and treatment was performed for 24 hours. Cells were harvested and lysed for 20 minutes on ice using lysis buffer (Cell Signaling Technology, Cat#9803) supplemented with protease inhibitor cocktail (Sigma, Cat#P8340; Roche, Cat#P11873580001), and phosphatase inhibitor cocktail (Sigma, Cat#P5726, P0044). The lysate was sonicated (15 seconds, amplitude 30%, 1 cycle) and then centrifuged at 12500 rpm for 15 minutes at 4°C. The protein concentration was determined by BCA assay kit (Thermo Fisher Scientific, Cat#23225).
The western blotting was performed using Simple Western JESS (protein simple). A cell lysis sample (protein amount; about 1.06 µg) was loaded on a plate of Simple Western JESS, and the expression level of ROCK2 protein was detected using a 12-230 kDa Wes Separation Module (Protein simple, Cat#SM-WO04), an Anti-Rabbit Detection Module for Wes (Protein simple, Cat#DM-001), and a Total Protein Detection Module for Wes (Protein simple, Cat#DM-TP01). As the primary antibody, a material obtained by diluting ROCK2 (D1B1) Rabbit mAb (Cell Signaling Technology, Cat#9029) at 1:10 was used, and as the secondary antibody, a material obtained by diluting HRP-labeled anti-rabbit IgG antibody (Cell Signaling Technology, Cat#7074S) at 1:100 was used. The expression level of the target protein was standardized using the total protein amount loaded as a reference. The standardized expression level data of the control (DMSO) was taken as 100%, and the degradation rate (%) was calculated from the average standardized expression level data of the test compound. All analysis steps, such as data detection and analysis, are fully automated.
With respect to the ROCK2 protein degradation rate of the test compound, the protein degradation rates (%) at the evaluation concentrations were set to A ≥ 75%, 75% > B ≥ 50%, 50% > C ≥ 25%, and D < 25%, and are shown in Table 7.

ROCK2 protein, sequence (O75116 whole entry): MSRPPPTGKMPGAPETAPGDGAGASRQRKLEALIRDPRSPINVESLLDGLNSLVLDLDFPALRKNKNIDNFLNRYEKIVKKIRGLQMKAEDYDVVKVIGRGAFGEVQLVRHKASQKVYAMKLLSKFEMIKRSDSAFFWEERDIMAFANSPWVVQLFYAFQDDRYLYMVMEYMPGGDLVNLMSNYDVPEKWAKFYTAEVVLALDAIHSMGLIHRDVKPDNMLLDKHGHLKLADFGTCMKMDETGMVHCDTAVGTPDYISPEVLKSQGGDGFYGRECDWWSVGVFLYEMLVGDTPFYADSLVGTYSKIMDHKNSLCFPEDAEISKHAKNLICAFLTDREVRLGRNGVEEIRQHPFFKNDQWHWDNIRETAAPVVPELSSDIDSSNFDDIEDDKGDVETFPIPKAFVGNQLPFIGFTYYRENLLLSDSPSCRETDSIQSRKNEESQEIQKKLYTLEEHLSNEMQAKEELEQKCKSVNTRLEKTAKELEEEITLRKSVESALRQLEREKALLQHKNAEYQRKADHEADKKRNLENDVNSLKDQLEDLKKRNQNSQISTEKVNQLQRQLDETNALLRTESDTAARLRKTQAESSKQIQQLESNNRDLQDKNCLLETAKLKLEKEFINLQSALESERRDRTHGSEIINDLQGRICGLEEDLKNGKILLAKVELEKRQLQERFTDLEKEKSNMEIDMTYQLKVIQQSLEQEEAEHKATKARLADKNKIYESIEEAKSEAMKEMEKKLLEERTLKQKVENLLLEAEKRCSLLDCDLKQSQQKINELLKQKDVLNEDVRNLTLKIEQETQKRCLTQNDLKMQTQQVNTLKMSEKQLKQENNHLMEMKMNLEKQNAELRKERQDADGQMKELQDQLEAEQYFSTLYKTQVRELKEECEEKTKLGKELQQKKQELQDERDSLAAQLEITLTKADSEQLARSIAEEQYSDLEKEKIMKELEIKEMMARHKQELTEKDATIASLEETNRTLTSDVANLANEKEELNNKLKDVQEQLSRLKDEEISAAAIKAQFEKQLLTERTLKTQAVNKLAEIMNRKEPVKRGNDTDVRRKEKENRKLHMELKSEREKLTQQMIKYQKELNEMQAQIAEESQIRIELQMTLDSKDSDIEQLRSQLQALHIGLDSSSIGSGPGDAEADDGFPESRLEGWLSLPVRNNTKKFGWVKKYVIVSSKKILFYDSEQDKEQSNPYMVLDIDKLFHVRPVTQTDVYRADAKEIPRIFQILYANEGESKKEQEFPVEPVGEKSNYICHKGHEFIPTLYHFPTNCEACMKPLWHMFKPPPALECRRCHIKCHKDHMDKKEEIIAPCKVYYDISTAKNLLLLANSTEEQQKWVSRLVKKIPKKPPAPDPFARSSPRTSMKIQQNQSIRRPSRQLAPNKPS

inhibition at 1 µM	inhibition at 10 µM	Compound
25 to 50%	≥ 75%	COC[C@H]1CN[C@H](C)CN1CC(=O)N1CC(C)(C)c2nc(CN(C)CCOCCOCCOCCOCCNC[C@@H](C(=O)Nc3ccc4cnccc4c3)c3ccccc3)c(Cc3ccc(F)cc3)cc21 [Example 39, (S)-1-(6-(4-Fluorobenzyl)-1-(2-((2R,5R)-2-(methoxymethyl)-5-methylpiperazin-1-yl)acetyl)-3,3-dimethyl-2,3-dihydro-1H-pyrrolo[3,2-b]pyridin-5-yl)-N-(isoquinolin-6-yl)-2-methyl-19-phenyl-5,8,11,14-tetraoxa-2,17-diazaicosan-20-amide]
50 to 75%	≥ 75%	COC[C@H]1CN[C@H](C)CN1CC(=O)N1CC(C)(C)c2ncc(Cc3cccc(OCCOCCOCCNC[C@@H](C(=O)Nc4ccc5cnccc5c4)c4ccccc4)c3)cc21 [Example 58, (S)-N-(Isoquinolin-6-yl)-3-((2-(2-(2-(3-((1-(2-((2R,5R)-2-(methoxymethyl)-5-methylpiperazin-1-yl)acetyl)-3,3-dimethyl-2,3-dihydro-1H-pyrrolo[3,2-b]pyridin-6-yl)methyl)phenoxy)ethoxy)ethoxy)ethyl)amino)-2-phenylpropanamide]
≥ 75%	≥ 75%	COC[C@H]1CN[C@H](C)CN1CC(=O)N1CC(C)(C)c2nc(CN(C)CCOCCOCCN[C@H](C)c3ccc(C(=O)Nc4ccncc4)cc3)c(Cc3ccc(F)cc3)cc21 [Example 23, 4-((R)-1-(6-(4-Fluorobenzyl)-1-(2-((2R,5R)-2-(methoxymethyl)-5-methylpiperazin-1-yl)acetyl)-3,3-dimethyl-2,3-dihydro-1H-pyrrolo[3,2-b]pyridin-5-yl)-2-methyl-5,8-dioxa-2,11-diazatridecan-12-yl)-N-(pyridin-4-yl)benzamide]
< 25%	≥ 75%	COC[C@H]1CN[C@H](C)CN1CC(=O)N1CC(C)(C)c2ncc(Cc3ccccc3OCCOCCOCCOCCOCCOCCOCCOCCN[C@H](Cc3cccc(F)c3)C(=O)Nc3ccc(-c4ccncc4)cc3)cc21 [Example 77, (R)-2-(3-Fluorobenzyl)-26-(2-((1-(2-((2R,5R)-2-(methoxymethyl)-5-methylpiperazin-1-yl)acetyl)-3,3-dimethyl-2,3-dihydro-1H-pyrrolo[3,2-b]pyridin-6-yl)methyl)phenoxy)-N-(4-(pyridin-4-yl)phenyl)-6,9,12,15,18,21,24-heptaoxa-3-azahexacosanamide]
< 25%	< 25%	COC[C@H]1CN[C@H](C)CN1CC(=O)N1CC(C)(C)c2nc(CN(C)CCOCCOCCN[C@H](Cc3cccc(F)c3)C(=O)Nc3ccc(-c4ccncc4)cc3)c(Cc3ccc(F)cc3)cc21 [Example 30, (R)-12-(3-Fluorobenzyl)-1-(6-(4-fluorobenzyl)-1-(2-((2R,5R)-2-(methoxymethyl)-5-methylpiperazin-1-yl)acetyl)-3,3-dimethyl-2,3-dihydro-1H-pyrrolo[3,2-b]pyridin-5-yl)-2-methyl-N-(4-(pyridin-4-yl)phenyl)-5,8-dioxa-2,11-diazatridecan-13-amide]
50 to 75%	≥ 75%	COC[C@H]1CN[C@H](C)CN1CC(=O)N1CC(C)(C)c2nc(CN(C)CCOCCOCCOCCOCCOCCOCCNC[C@@H](C(=O)Nc3ccc4cnccc4c3)c3ccccc3)c(Cc3ccc(F)cc3)cc21 [Example 41, (S)-1-(6-(4-Fluorobenzyl)-1-(2-((2R,5R)-2-(methoxymethyl)-5-methylpiperazin-1-yl)acetyl)-3,3-dimethyl-2,3-dihydro-1H-pyrrolo[3,2-b]pyridin-5-yl)-N-(isoquinolin-6-yl)-2-methyl-25-phenyl-5,8,11,14,17,20-hexaoxa-2,23-diazahexacosan-26-amide]
25 to 50%	25 to 50%	COC[C@H]1CN[C@H](C)CN1CC(=O)N1CC(C)(C)c2ncc(Cc3cccc(OCCOCCOCCOCCOCCN[C@H](C)c4ccc(C(=O)Nc5ccncc5)cc4)c3)cc21 [Example 46, 4-((R)-17-(3-((1-(2-((2R,5R)-2-(Methoxymethyl)-5-methylpiperazin-1-yl)acetyl)-3,3-dimethyl-2,3-dihydro-1H-pyrrolo[3,2-b]pyridin-6-yl)methyl)phenoxy)-6,9,12,15-tetraoxa-3-azaheptadecan-2-yl)-N-(pyridin-4-yl)benzamide]
50 to 75%	≥ 75%	COC[C@H]1CN[C@H](C)CN1CC(=O)N1CC(C)(C)c2nc(CN(C)CCOCCN[C@H](Cc3cccc(F)c3)C(=O)Nc3ccc(-c4ccncc4)cc3)c(Cc3ccc(F)cc3)cc21 [Example 29, (R)-2-((2-(2-(((6-(4-Fluorobenzyl)-1-(2-((2R,5R)-2-(methoxymethyl)-5-methylpiperazin-1-yl)acetyl)-3,3-dimethyl-2,3-dihydro-1H-pyrrolo[3,2-b]pyridin-5-yl)methyl)(methyl)amino)ethoxy)ethyl)amino)-3-(3-fluorophenyl)-N-(4-(pyridin-4-yl)phenyl)propanamide]
50 to 75%	50 to 75%	C[C@@H]1CN(CC(=O)N2CC(C)(C)c3ncc(Cc4ccc(F)cc4)cc32)[C@@H](CN(C)CCOCCOCCOCCOCCOCCOCCOCCN[C@H](C)c2ccc(C(=O)Nc3ccncc3)cc2)CN1 [Example 7, 4-((R)-1-((2R,5R)-1-(2-(6-(4-Fluorobenzyl)-3,3-dimethyl-2,3-dihydro-1H-pyrrolo[3,2-b]pyridin-1-yl)-2-oxoethyl)-5-methylpiperazin-2-yl)-2-methyl-5,8,11,14,17,20,23-heptaoxa-2,26-diazaoctacosan-27-yl)-N-(pyridin-4-yl)benzamide]
< 25%	50 to 75%	COC[C@H]1CN[C@H](C)CN1CC(=O)N1CC(C)(C)c2ncc(Cc3ccccc3OCCOCCOCCOCCOCCOCCOCCN[C@H](Cc3cccc(F)c3)C(=O)Nc3ccc(-c4ccncc4)cc3)cc21 [Example 76, (R)-2-(3-Fluorobenzyl)-23-(2-((1-(2-((2R,5R)-2-(methoxymethyl)-5-methylpiperazin-1-yl)acetyl)-3,3-dimethyl-2,3-dihydro-1H-pyrrolo[3,2-b]pyridin-6-yl)methyl)phenoxy)-N-(4-(pyridin-4-yl)phenyl)-6,9,12,15,18,21-hexaoxa-3-azatricosanamide]
< 25%	≥ 75%	COC[C@H]1CN[C@H](C)CN1CC(=O)N1CC(C)(C)c2nc(CN(C)CCOCCOCCNC[C@@H](C(=O)Nc3ccc4cnccc4c3)c3ccccc3)c(Cc3ccc(F)cc3)cc21 [Example 37, (S)-1-(6-(4-Fluorobenzyl)-1-(2-((2R,5R)-2-(methoxymethyl)-5-methylpiperazin-1-yl)acetyl)-3,3-dimethyl-2,3-dihydro-1H-pyrrolo[3,2-b]pyridin-5-yl)-N-(isoquinolin-6-yl)-2-methyl-13-phenyl-5,8-dioxa-2,11-diazatetradecan-14-amide]
< 25%	50 to 75%	COC[C@H]1CN[C@H](C)CN1CC(=O)N1CC(C)(C)c2ncc(Cc3cccc(OCCOCCOCCOCCOCCN[C@H](Cc4cccc(F)c4)C(=O)Nc4ccc(-c5ccncc5)cc4)c3)cc21 [Example 53, (R)-2-(3-Fluorobenzyl)-17-(3-((1-(2-((2R,5R)-2-(methoxymethyl)-5-methylpiperazin-1-yl)acetyl)-3,3-dimethyl-2,3-dihydro-1H-pyrrolo[3,2-b]pyridin-6-yl)methyl)phenoxy)-N-(4-(pyridin-4-yl)phenyl)-6,9,12,15-tetraoxa-3-azaheptadecanamide]
≥ 75%	≥ 75%	C[C@@H]1CN(CC(=O)N2CC(C)(C)c3ncc(Cc4ccc(F)cc4)cc32)[C@@H](CN(C)CCOCCOCCOCCOCCN[C@H](C)c2ccc(C(=O)Nc3ccncc3)cc2)CN1 [Example 4, 4-((R)-1-((2R,5R)-1-(2-(6-(4-Fluorobenzyl)-3,3-dimethyl-2,3-dihydro-1H-pyrrolo[3,2-b]pyridin-1-yl)-2-oxoethyl)-5-methylpiperazin-2-yl)-2-methyl-5,8,11,14-tetraoxa-2,17-diazanonadecan-18-yl)-N-(pyridin-4-yl)benzamide]
